Values quoted from earlier work in PMC6957711 (Journal of Alzheimer's Disease, 2020).

What was measured:
[1] = Phase III clinical studies
tau = details: in vitro

Row | Compound | clinical endpoints [1] | tau fibril formation (tau) | tau oligomer formation (tau)
1 | CN(C)c1ccc2c(c1)Sc1cc(N(C)C)ccc1N2.CS(=O)(=O)O.CS(=O)(=O)O [LMTX, Leuco-Methylthioninium Bis(Hydromethanesulphonate)] | failed to meet its clinical endpoints | – | –
2 | CN(C)c1ccc2nc3ccc(=[N+](C)C)cc-3sc2c1 [methylene blue] | – | inhibits | accelerates
